# Laboratory results: US8735414B2 (priority 2009, dated 2014)
# Test system: bicistronic HCV replicon (replicon RNA, GenBank Accession No. AJ242654)
# Experiment: HCV Replicon Assay
# Type: cell-based
# Conditions: Hepatitis C virus, 72 h, read-out: Replicon IC50
row,SMILES,IC50
1,"N#Cc1c(-c2ncc(S(=O)(=O)NC(CF)CF)cn2)n(C2CCC2)c2cc(C3CC3)c(F)cc12 [compound 145, 2-(3-cyano-1-cyclobutyl-6-cyclopropyl-5-fluoro-1H-indol-2-yl)-N-(1,3-difluoropropan-2-yl)pyrimidine-5-sulfonamide]",< 500 nM
2,"C=CCc1cc2c(cc1F)c(C#N)c(-c1ccc(S(=O)(=O)N[C@@H](C)C(F)(F)F)cn1)n2-c1ncccn1 [compound 967, 6-[3-cyano-5-fluoro-6-(prop-2-en-1-yl)-1-(pyrimidin-2-yl)-1H-indol-2-yl]-N-[(2S)-1,1,1-trifluoropropan-2-yl]pyridine-3-sulfonamide]",< 500 nM
3,"CC(C)NS(=O)(=O)c1ccc(-c2c(C#N)c3ccc(OC(F)(F)F)cc3n2C2CCCC2)nc1 [compound 17, 6-[3-cyano-1-cyclopentyl-6-(trifluoromethoxy)-1H-indol-2-yl]-N-(propan-2-yl)pyridine-3-sulfonamide]",500 to 2000 nM
4,"Cc1cc2c(cc1F)c(C#N)c(-c1ccc(S(=O)(=O)NC3CC3)cn1)n2C1CCC1 [compound 652, 6-(3-cyano-1-cyclobutyl-5-fluoro-6-methyl-1H-indol-2-yl)-N-cyclopropylpyridine-3-sulfonamide]",< 500 nM
5,"C[C@H](NS(=O)(=O)c1ccc(-c2c(C#N)c3cc(Cl)c(OC(F)F)cc3n2C2CCC2)nc1)C(F)(F)F [compound 636, 6-[5-chloro-3-cyano-1-cyclobutyl-6-(difluoromethoxy)-1H-indol-2-yl]-N-[(2S)-1,1,1-trifluoropropan-2-yl]pyridine-3-sulfonamide]",< 500 nM
6,"Cc1cc2c(cc1F)c(C#N)c(-c1ccc(S(=O)(=O)N[C@@H](C)C(F)(F)F)cn1)n2-c1ccc(F)cn1 [compound 742, 6-[3-cyano-5-fluoro-1-(5-fluoropyridin-2-yl)-6-methyl-1H-indol-2-yl]-N-[(2S)-1,1,1-trifluoropropan-2-yl]pyridine-3-sulfonamide]",< 500 nM
7,"CC(O)c1cc2c(cc1F)c(C#N)c(-c1ccc(S(=O)(=O)N[C@@H](C)C(F)(F)F)cn1)n2-c1ncccn1 (stereo partly drawn) [compound 911, 6-[3-cyano-5-fluoro-6-(1-hydroxyethyl)-1-(pyrimidin-2-yl)-1H-indol-2-yl]-N-[(2S)-1,1,1-trifluoropropan-2-yl]pyridine-3-sulfonamide]",< 500 nM
8,"CC(C)(NS(=O)(=O)c1ccc(-c2c(C(=O)O)c3cc(F)c(OC(F)F)cc3n2C2CCCCC2)nc1)C(F)(F)F [compound 928, 1-cyclohexyl-6-(difluoromethoxy)-5-fluoro-2-{5-[(1,1,1-trifluoro-2-methylpropan-2-yl)sulfamoyl]pyridin-2-yl}-1H-indole-3-carboxylic acid]",< 500 nM
9,"CC(C)NS(=O)(=O)c1ccc(-c2c(C#N)c3ccc(OC(F)(F)F)cc3n2C2CCC2)cn1 [compound 26, 5-[3-cyano-1-cyclobutyl-6-(trifluoromethoxy)-1H-indol-2-yl]-N-(propan-2-yl)pyridine-2-sulfonamide]",500 to 2000 nM
10,"Cc1ccc2c(C#N)c(-c3ccc(S(=O)(=O)N[C@@H](C)C4CC4)cn3)n(CC3CC3)c2c1 [compound 237, 6-[3-cyano-1-(cyclopropylmethyl)-6-methyl-1H-indol-2-yl]-N-[(1S)-1-cyclopropylethyl]pyridine-3-sulfonamide]",< 500 nM
11,"COc1ccnc(-n2c(-c3ccc(S(=O)(=O)N[C@@H](C)C(F)(F)F)cn3)c(C#N)c3cc(F)c(C)cc32)n1 [compound 866, 6-[3-cyano-5-fluoro-1-(4-methoxypyrimidin-2-yl)-6-methyl-1H-indol-2-yl]-N-[(2S)-1,1,1-trifluoropropan-2-yl]pyridine-3-sulfonamide]",500 to 2000 nM
12,"N#Cc1c(-c2ccc(S(=O)(=O)NC(CF)CF)cn2)n(CC2CC2)c2ccc(Cl)cc12 [compound 73, 6-[5-chloro-3-cyano-1-(cyclopropylmethyl)-1H-indol-2-yl]-N-(1,3-difluoropropan-2-yl)pyridine-3-sulfonamide]",< 500 nM
13,"N#Cc1c(-c2ccc(S(=O)(=O)NC(CF)CF)cn2)n(C2CCC2)c2cc(C3CCC3)ccc12 [compound 342, 6-(3-cyano-1,6-dicyclobutyl-1H-indol-2-yl)-N-(1,3-difluoropropan-2-yl)pyridine-3-sulfonamide]",500 to 2000 nM
14,"CC(C)S(=O)(=O)Nc1ccc(-c2c(C#N)c3ccc(OCC(F)(F)F)cc3n2CC2CC2)cn1 [compound 291, N-{5-[3-cyano-1-(cyclopropylmethyl)-6-(2,2,2-trifluoroethoxy)-1H-indol-2-yl]pyridin-2-yl}propane-2-sulfonamide]",500 to 2000 nM
15,"CCc1cc2c(cc1F)c(C#N)c(-c1ccc(S(=O)(=O)N[C@@H](C)C(F)(F)F)cn1)n2-c1ccccc1F [compound 1075, 6-[3-cyano-6-ethyl-5-fluoro-1-(2-fluorophenyl)-1H-indol-2-yl]-N-[(2S)-1,1,1-trifluoropropan-2-yl]pyridine-3-sulfonamide]",< 500 nM
16,"Cc1cc2c(cc1F)c(C#N)c(-c1ccc(S(=O)(=O)NC(C)(C)C)cn1)n2C1CCOCC1 [compound 752, N-tert-butyl-6-[3-cyano-5-fluoro-6-methyl-1-(tetrahydro-2H-pyran-4-yl)-1H-indol-2-yl]pyridine-3-sulfonamide]",< 500 nM
17,"C[C@H](NS(=O)(=O)c1ccc(-c2c(C#N)c3cc(F)c(CC(F)F)cc3n2C2CCC2)nc1)C(F)(F)F [compound 697, 6-[3-cyano-1-cyclobutyl-6-(2,2-difluoroethyl)-5-fluoro-1H-indol-2-yl]-N-[(2S)-1,1,1-trifluoropropan-2-yl]pyridine-3-sulfonamide]",< 500 nM
18,"COC(=O)c1c(-c2ccc(S(=O)(=O)N[C@@H](C)C(F)(F)F)cn2)n(C2CCC2)c2cc(C)c(F)cc12 [compound 771, methyl 1-cyclobutyl-5-fluoro-6-methyl-2-(5-{[(2S)-1,1,1-trifluoropropan-2-yl]sulfamoyl}pyridin-2-yl)-1H-indole-3-carboxylate]",< 500 nM
19,"Cc1ccc2c(C#N)c(-c3ccc(S(=O)(=O)N[C@@H](C)C4CC4)cn3)n(C(C)C)c2c1 [compound 425, 6-[3-cyano-6-methyl-1-(propan-2-yl)-1H-indol-2-yl]-N-[(1S)-1-cyclopropylethyl]pyridine-3-sulfonamide]",500 to 2000 nM
20,"C[C@H](NS(=O)(=O)c1ccc(-c2cc3cc(F)c(OC(F)F)cc3n2C2CCC2)nc1)C(F)(F)F [compound 727, 6-[1-cyclobutyl-6-(difluoromethoxy)-5-fluoro-1H-indol-2-yl]-N-[(2S)-1,1,1-trifluoropropan-2-yl]pyridine-3-sulfonamide]",< 500 nM
21,"CC(C)(NS(=O)(=O)c1ccc(-c2c(C#N)c3ccc(C4CC4)cc3n2-c2ccccn2)nc1)C(F)(F)F [compound 584, 6-[3-cyano-6-cyclopropyl-1-(pyridin-2-yl)-1H-indol-2-yl]-N-(1,1,1-trifluoro-2-methylpropan-2-yl)pyridine-3-sulfonamide]",500 to 2000 nM
22,"Cc1cc2c(C#N)c(-c3ccc(S(=O)(=O)N[C@H](C)C(F)(F)F)cn3)n(C3CCC3)c2cc1OC(F)F [compound 665, 6-[3-cyano-1-cyclobutyl-6-(difluoromethoxy)-5-methyl-1H-indol-2-yl]-N-[(2R)-1,1,1-trifluoropropan-2-yl]pyridine-3-sulfonamide]",500 to 2000 nM
